Results taken from ChEMBL document CHEMBL1159126, “Salicylanilide carbamates: antitubercular agents active against multidrug-resistant Mycobacterium tuberculosis strains” (Bioorg Med Chem, 2010).
In brackets after ≈: the same amount, converted by molar mass.

Experiments:
[1] = system: Mycobacterium tuberculosis; test: microbe, parasite or virus in culture; conditions: 331/88, 504 h
Description: Antimycobacterial activity against Mycobacterium tuberculosis 331/88 after 21 days by micromethod

Mycobacterium avium [2] = test: Antimycobacterial activity against Mycobacterium avium 330/88 after 21 days by micromethod; assay type: functional; conditions: 330/88, 504 h
Mycobacterium kansasii [3] = test: Antimycobacterial activity against Mycobacterium kansasii 235/80 after 21 days by micromethod; assay type: functional; conditions: 235/80, 504 h
[4] = system: Mycobacterium tuberculosis; test: microbe, parasite or virus in culture; conditions: 331/88, 336 h
Description: Antimycobacterial activity against Mycobacterium tuberculosis 331/88 after 14 days by micromethod

Mycobacterium avium [5] = test: Antimycobacterial activity against Mycobacterium avium 330/88 after 14 days by micromethod; assay type: functional; conditions: 330/88, 336 h
Mycobacterium kansasii [6] = test: Antimycobacterial activity against Mycobacterium kansasii 235/80 after 14 days by micromethod; assay type: functional; conditions: 235/80, 336 h
Mycobacterium kansasii [7] = test: Antimycobacterial activity against Mycobacterium kansasii 6509/96 after 21 days by micromethod; assay type: functional; conditions: 6509/96, 504 h
[8] = Toxicity against human HCT8 cells after 72 hrs by XTT assay; assay type: cell-based, HCT-8
[9] = Partition coefficient, log P of the compound; assay type: physicochemical; conditions: octanol/water
Mycobacterium kansasii [10] = test: Antimycobacterial activity against Mycobacterium kansasii 6509/96 after 14 days by micromethod; assay type: functional; conditions: 6509/96, 336 h
[11] = Stability in 100 mM phosphate buffer at pH 8 assessed as compound degradation by HPLC; assay type: physicochemical
[12] = Stability in 100 mM phosphate buffer at pH 7.4 assessed as compound degradation by HPLC; assay type: physicochemical
[13] = Stability in 100 mM phosphate buffer at pH 4 assessed as compound degradation by HPLC; assay type: physicochemical
[14] = Stability in 100 mM phosphate buffer at pH 3 assessed as compound degradation by HPLC; assay type: physicochemical
[15] = Stability in 100 mM phosphate buffer at pH 5 assessed as compound degradation by HPLC; assay type: physicochemical
[16] = Stability in 100 mM phosphate buffer at pH 7 assessed as compound degradation by HPLC; assay type: physicochemical
[17] = Stability in 100 mM phosphate buffer at pH 6 assessed as compound degradation by HPLC; assay type: physicochemical

Structure (SMILES) | MIC [1] [µM] | MIC (Mycobacterium avium [2]) [µM] | MIC (Mycobacterium kansasii [3]) [µM] | MIC [4] [µM] | MIC (Mycobacterium avium [5]) [µM] | MIC (Mycobacterium kansasii [6]) [µM] | MIC (Mycobacterium kansasii [7]) [µM] | EC50 at 72 h [8] [µM] | logP [9] | MIC (Mycobacterium kansasii [10]) [µM] | half-life [11] [h] | half-life [12] [h] | Stability [13] | Stability [14] | Stability [15] | half-life [16] [h] | half-life [17] [h]
CCCCCCNC(=O)Oc1ccc(Cl)cc1C(=O)Nc1cccc(Cl)c1 | 1 (≈ 0.409 µg/mL) | 8 (≈ 3.27 µg/mL) | 4 (≈ 1.64 µg/mL) | 0.5 (≈ 0.205 µg/mL) | 8 (≈ 3.27 µg/mL) | 4 (≈ 1.64 µg/mL) | 4 (≈ 1.64 µg/mL) | 14.9 | 5.53 | 4 (≈ 1.64 µg/mL) | – | – | – | – | – | – | –
CCCCCCCNC(=O)Oc1ccc(Cl)cc1C(=O)Nc1ccc(Cl)c(Cl)c1 | 1 (≈ 0.458 µg/mL) | 8 (≈ 3.66 µg/mL) | 2 (≈ 0.916 µg/mL) | 0.5 (≈ 0.229 µg/mL) | 4 (≈ 1.83 µg/mL) | 2 (≈ 0.916 µg/mL) | 4 (≈ 1.83 µg/mL) | 43.4 | 6.5 | 2 (≈ 0.916 µg/mL) | – | – | – | – | – | – | –
CCCCCCCCCNC(=O)Oc1ccc(Cl)cc1C(=O)Nc1ccc(Cl)c(Cl)c1 | 2 (≈ 0.972 µg/mL) | 8 (≈ 3.89 µg/mL) | 8 (≈ 3.89 µg/mL) | 2 (≈ 0.972 µg/mL) | 8 (≈ 3.89 µg/mL) | 8 (≈ 3.89 µg/mL) | 4 (≈ 1.94 µg/mL) | – | 7.34 | 4 (≈ 1.94 µg/mL) | – | – | – | – | – | – | –
NNC(=O)c1ccncc1 [ISONIAZID] | 0.5 (≈ 0.0686 µg/mL) | > 250 | > 250 | 0.5 (≈ 0.0686 µg/mL) | > 250 | > 250 | 4 (≈ 0.549 µg/mL) | > 100 | – | 4 (≈ 0.549 µg/mL) | – | – | – | – | – | – | –
CCCCCNC(=O)Oc1ccc(Cl)cc1C(=O)Nc1cccc(Cl)c1 | 4 (≈ 1.58 µg/mL) | 8 (≈ 3.16 µg/mL) | 8 (≈ 3.16 µg/mL) | 2 (≈ 0.791 µg/mL) | 8 (≈ 3.16 µg/mL) | 8 (≈ 3.16 µg/mL) | 8 (≈ 3.16 µg/mL) | – | 5.11 | 8 (≈ 3.16 µg/mL) | – | – | – | – | – | – | –
CCCCCCCNC(=O)Oc1ccc(Cl)cc1C(=O)Nc1ccc(Cl)cc1 | 2 (≈ 0.847 µg/mL) | 8 (≈ 3.39 µg/mL) | 8 (≈ 3.39 µg/mL) | 2 (≈ 0.847 µg/mL) | 8 (≈ 3.39 µg/mL) | 8 (≈ 3.39 µg/mL) | 4 (≈ 1.69 µg/mL) | – | 5.94 | 4 (≈ 1.69 µg/mL) | – | – | – | – | – | – | –
CCCCCCCCNC(=O)Oc1ccc(Cl)cc1C(=O)Nc1ccc(Cl)cc1 | 2 (≈ 0.875 µg/mL) | 8 (≈ 3.5 µg/mL) | 8 (≈ 3.5 µg/mL) | 2 (≈ 0.875 µg/mL) | 8 (≈ 3.5 µg/mL) | 8 (≈ 3.5 µg/mL) | 4 (≈ 1.75 µg/mL) | – | 6.36 | 4 (≈ 1.75 µg/mL) | – | – | – | – | – | – | –
CCNC(=O)Oc1ccc(Cl)cc1C(=O)Nc1ccc(Cl)c(Cl)c1 | 1 (≈ 0.388 µg/mL) | 32 (≈ 12.4 µg/mL) | 4 (≈ 1.55 µg/mL) | 0.5 (≈ 0.194 µg/mL) | 16 (≈ 6.2 µg/mL) | 2 (≈ 0.775 µg/mL) | 4 (≈ 1.55 µg/mL) | 31 | 4.35 | 2 (≈ 0.775 µg/mL) | – | – | – | – | – | – | –
CCCCCCNC(=O)Oc1ccc(Cl)cc1C(=O)Nc1ccc(Cl)cc1 | 2 (≈ 0.819 µg/mL) | 8 (≈ 3.27 µg/mL) | 4 (≈ 1.64 µg/mL) | 1 (≈ 0.409 µg/mL) | 4 (≈ 1.64 µg/mL) | 4 (≈ 1.64 µg/mL) | 4 (≈ 1.64 µg/mL) | – | 5.53 | 2 (≈ 0.819 µg/mL) | – | – | – | – | – | – | –
CCCCNC(=O)Oc1ccc(Cl)cc1C(=O)Nc1ccc(Cl)c(Cl)c1 | 1 (≈ 0.416 µg/mL) | 16 (≈ 6.65 µg/mL) | 2 (≈ 0.831 µg/mL) | 0.5 (≈ 0.208 µg/mL) | 8 (≈ 3.33 µg/mL) | 2 (≈ 0.831 µg/mL) | 4 (≈ 1.66 µg/mL) | 38 | 5.25 | 2 (≈ 0.831 µg/mL) | – | – | – | – | – | – | –
CCCCCCCNC(=O)Oc1ccc(Cl)cc1C(=O)Nc1cccc(Cl)c1 | 2 (≈ 0.847 µg/mL) | 8 (≈ 3.39 µg/mL) | 8 (≈ 3.39 µg/mL) | 1 (≈ 0.423 µg/mL) | 8 (≈ 3.39 µg/mL) | 4 (≈ 1.69 µg/mL) | 8 (≈ 3.39 µg/mL) | – | 5.94 | 8 (≈ 3.39 µg/mL) | – | – | – | – | – | – | –
CCCCCCCCCCNC(=O)Oc1ccc(Cl)cc1C(=O)Nc1ccc(Cl)c(Cl)c1 | 2 (≈ 1 µg/mL) | 8 (≈ 4 µg/mL) | 4 (≈ 2 µg/mL) | 2 (≈ 1 µg/mL) | 8 (≈ 4 µg/mL) | 4 (≈ 2 µg/mL) | 4 (≈ 2 µg/mL) | – | 7.77 | 2 (≈ 1 µg/mL) | – | – | – | – | – | – | –
CCCCCCCCCCNC(=O)Oc1ccc(Cl)cc1C(=O)Nc1ccc(Cl)cc1 | 2 (≈ 0.931 µg/mL) | 8 (≈ 3.72 µg/mL) | 8 (≈ 3.72 µg/mL) | 2 (≈ 0.931 µg/mL) | 8 (≈ 3.72 µg/mL) | 8 (≈ 3.72 µg/mL) | 8 (≈ 3.72 µg/mL) | – | 7.19 | 8 (≈ 3.72 µg/mL) | – | – | – | – | – | – | –
CCCCCCNC(=O)Oc1ccc(Cl)cc1C(=O)Nc1ccc(Cl)c(Cl)c1 | 0.5 (≈ 0.222 µg/mL) | 8 (≈ 3.55 µg/mL) | 2 (≈ 0.888 µg/mL) | 0.5 (≈ 0.222 µg/mL) | 4 (≈ 1.78 µg/mL) | 2 (≈ 0.888 µg/mL) | 2 (≈ 0.888 µg/mL) | 27.9 | 6.08 | 1 (≈ 0.444 µg/mL) | 5 | 43 | Stable | Stable | Stable | 64 | 118
